Assay results reported in patent US9265268B2, “Method of handling bananas” (priority 2009, dated 2016).

Experiments:
Type in all cases: in vivo, Musa
[1] = system: bananas; test: Example 1: bananas bagged at harvest, shipped, ethylene-ripened, exposed 12 hr to MCP, stored at approx. 20° C.; sugar spots, color, shelf life; set-up: key to Sugar Spot Ratings: 0 = no spots, 1 = few, 2 = moderate, 3 = severe spots (group average)
Text: Each cluster of bananas was rated daily for sugar spots. Clusters were rated using the following scale:
0=no spots; 1=few spots; 2=moderate spots; 3=severe spots
Clusters with rating of 0-1 are commercially desirable to consumers. Clusters with ratings of 2-3 are unacceptable to consumers. In the results below, the average rating for all the clusters in a given treatment group is reported.
The color of banana peels is rated according to a seven stage rating scale: stage 1 (dark green); stage 2 (all light green); stage 3 (half green and half yellow); stage 4 (more yellow than green); stage 5 (green tips and necks); stage 6 (all yellow; maybe light green necks, no green tips); stage 7 (yellow flecked with brown). Consumers generally prefer to eat bananas in stage 5 or stage 6.
Bananas were harvested in Columbia and placed in bags. Three types of bags were used: • (1) non-MAP polymeric film bag, sized to hold 18 kg of bananas (“poly liner”). Each bag has two or more holes, each with diameter of approximately 20 mm or larger. • (2) non-MAP polymeric film bag with 44 large holes (hole diameter 10 mm), sized to hold 1.4 kg of bananas (“T-bag”); and • (3) MAP bag (as described above), sized to hold about 1.4 kg of bananas.
The appropriate weight of bananas was placed in each type of bag after harvest and prior to shipment. Bags were placed in standard cardboard carrying devices. Bananas then were shipped to Philadelphia, Pa., where they were exposed to ethylene using a standard 4 day ripening schedule. Standard commercial methods of shipment and exposure to ethylene were used.
The Test Protocol that was used was as follows. 312 MAP bags were packed. Each bag held approximately 1.4 kg (3 lb) of bananas. Thirteen such bags were packed in each box. Total weight of bananas in MAP bags was approximately 432 kg. Approximately 216 kg of bananas were placed into poly liners, which were placed into boxes identical to those used for the MAP bags. Approximately 216 kg of bananas were placed into T bags, which were placed into boxes identical to those used for the MAP bags. The gross fruit weight of the each box was approximately 19.5 kg (43 lb).
Banana heads (industry nomenclature is rasimo) were harvested at 14 weeks of age (typical for US markets). Heads were cut into large, medium and small hands. The hands were washed in chlorinated water tanks. The washed hands were further broken into clusters. Clusters were packed into bags that each held approximately 1.4 kg (3 lb) or bags that each held approximately 18 kg (40 lb). Bags were placed into standard cardboard boxes, and each box held approximately 18-20 kg. Each box had 8 round holes of diameter 40 mm, plus two larger oval holes that also served as hand-holds for carrying.
The MAP-packaged bananas were packaged as follows: Clusters of approximately 1.4 kg were carefully placed into microperforated bags, and the bags were sealed by twisting the open side of the bag, folding down the twisted end, and placing a rubber band around the twisted and folded end of the bag.
All bananas were quickly cooled to 13.3° C. and held at that temperature for shipping. During shipping, air ventilation was approximately 15%.
Bags were not opened during shipping or ripening. Temperature was monitored in some of the bags by placing a temperature probe in one banana in that bag prior to sealing.
Bananas were ripened in forced-air ripening rooms as follows. On day 1, bananas were kept at 18° C. (64° F.) and exposed to exogenous ethylene (150 ppm for 24 hours). No further exogenous ethylene was used. After day 1, bananas were kept at 18° C. for two days and then at 10° C. for one day. The temperatures given are pulp temperatures and not room temperatures. Humidity was 85% to 95%.
Bananas were then shipped to Spring House, Pa. Bananas arrived at color stage 2.5-3. The bananas were randomly divided into treatment sets as follows: […]

[2] = system: bananas; test: Example 2X: evaluation process X (extended storage at 14° C.); conditions: non-zero 1-MCP
Text: Bananas were harvested at 13 weeks of age. Fruit bunches were separated into hands, then washed, and excess latex was removed in chlorinated water tanks using standard commercial practices. The washed hands of bananas were further broken into clusters and treated with fungicide. Clusters were placed into plastic bags; each bag held approximately 1.4 kg (3 lbs) of bananas. The bananas remained in these bags until they were removed for evaluation (see below).
At day 5 at approximately 4 pm, the bananas had reached color stage 2.5 to 3.5. Treatment groups PE-3-C, PE-10-C, MAP-3, and MAP-10 were then exposed to 1-MCP overnight at the concentrations shown above.
Some of the bananas from each group described in Example 2 were evaluated by process “X” as follows: After treatment groups PE-3-C, PE-10-C, MAP-3, and MAP-10 received exposure to 1-MCP, the bananas remained in their bags and were held at approximately 14° C. The bananas were inspected daily while they remained in the bags.

[3] = system: bananas; test: Example US-7c: various number of bananas per bag (day on which sugar spots developed); conditions: for SS day (day during holding at 17.8° C. on which sugar spots developed): MAP/MCP: MAP type M, 1,000 ppb 1-MCP
Experimental: Bananas were handled and tested as in Example US-1, except that the number of bananas (“# of B”) per bag was varied. Results for MAP bags type M were compared at 0 1-MCP (“MAP only”) and at 1,000 ppb of 1-MCP (“MAP/MCP”). MAP only samples are comparative; MAP/MCP samples exemplify the present invention.
Also, the sugar spots were assessed. In this experiment, the number of the day during the holding at 17.8° C. on which sugar spots developed is noted (“SS day”). Bananas in T-bags (with either 0 or 1,000 ppb of 1-MCP) developed sugar spots on day 3.

Compound: CC1=CC1 [1-MCP, 1-methylcyclopropene]
- additional shelf life ([1]; 1-MCP alone (no MAP)): 1 to 2 days
- Sugar Spot Ratings ([1]; MAP, 300 ppb MCP, Day 0): 0
- Sugar Spot Ratings ([1]; MAP, 300 ppb MCP, Day 1): 0
- Sugar Spot Ratings ([1]; MAP, 300 ppb MCP, Day 2): 0.00
- Sugar Spot Ratings ([1]; MAP, 300 ppb MCP, Day 3): 0.19
- Sugar Spot Ratings ([1]; MAP, 300 ppb MCP, Day 4): 0.53
- Sugar Spot Ratings ([1]; MAP, 300 ppb MCP, Day 5): 0.92
- Sugar Spot Ratings ([1]; MAP, 300 ppb MCP, Day 6): 1.61
- Sugar Spot Ratings ([1]; MAP, 1000 ppb MCP, Day 0): 0
- Sugar Spot Ratings ([1]; MAP, 1000 ppb MCP, Day 1): 0
- Sugar Spot Ratings ([1]; MAP, 1000 ppb MCP, Day 2): 0.11
- Sugar Spot Ratings ([1]; MAP, 1000 ppb MCP, Day 3): 0.22
- Sugar Spot Ratings ([1]; MAP, 1000 ppb MCP, Day 4): 0.56
- Sugar Spot Ratings ([1]; MAP, 1000 ppb MCP, Day 5): 1.56
- Sugar Spot Ratings ([1]; MAP, 1000 ppb MCP, Day 6): 1.89
- Sugar Spot Ratings ([1]; T bags, 300 ppb MCP, Day 0): 0
- Sugar Spot Ratings ([1]; T bags, 300 ppb MCP, Day 1): 0
- Sugar Spot Ratings ([1]; T bags, 300 ppb MCP, Day 2): 0
- Sugar Spot Ratings ([1]; T bags, 300 ppb MCP, Day 3): 0.94
- Sugar Spot Ratings ([1]; T bags, 300 ppb MCP, Day 4): 2.44
- Sugar Spot Ratings ([1]; T bags, 300 ppb MCP, Day 5): 2.78
- Sugar Spot Ratings ([1]; T bags, 1000 ppb MCP, Day 0): 0
- Sugar Spot Ratings ([1]; T bags, 1000 ppb MCP, Day 1): 0
- Sugar Spot Ratings ([1]; T bags, 1000 ppb MCP, Day 2): 0
- Sugar Spot Ratings ([1]; T bags, 1000 ppb MCP, Day 3): 0.44
- Sugar Spot Ratings ([1]; T bags, 1000 ppb MCP, Day 4): 2.06
- Sugar Spot Ratings ([1]; T bags, 1000 ppb MCP, Day 5): 2.61
- visual quality maintained beyond the standard handling method ([1]; combined treatment 1-MCP and MAP): 10 days
- Sugar Spot Ratings ([1]; poly liner, 300 ppb MCP, Day 0): 0
- Sugar Spot Ratings ([1]; poly liner, 300 ppb MCP, Day 1): 0
- Sugar Spot Ratings ([1]; poly liner, 300 ppb MCP, Day 2): 0.06
- Sugar Spot Ratings ([1]; poly liner, 300 ppb MCP, Day 3): 0.33
- Sugar Spot Ratings ([1]; poly liner, 300 ppb MCP, Day 4): 2.17
- Sugar Spot Ratings ([1]; poly liner, 300 ppb MCP, Day 5): 2.89
- Sugar Spot Ratings ([1]; poly liner, 1000 ppb MCP, Day 0): 0
- Sugar Spot Ratings ([1]; poly liner, 1000 ppb MCP, Day 1): 0
- Sugar Spot Ratings ([1]; poly liner, 1000 ppb MCP, Day 2): 0.00
- Sugar Spot Ratings ([1]; poly liner, 1000 ppb MCP, Day 3): 0.33
- Sugar Spot Ratings ([1]; poly liner, 1000 ppb MCP, Day 4): 2.67
- Sugar Spot Ratings ([1]; poly liner, 1000 ppb MCP, Day 5): 2.89
- acceptability of bananas ([2]; MAP bags, day number 17 after treatment, held at 14° C.): still acceptable
- onset of sugar spots ([2]; MAP bags, held in bags at 14° C.): showed a delay in the onset of sugar spots
- additional time bananas remained acceptable after removal from MAP bags ([2]; after 17 days at 14° C., stored at approx. 22° C.): three
- SS day (day during holding at 17.8° C. on which sugar spots developed) ([3]; # of B 1): 4
- SS day (day during holding at 17.8° C. on which sugar spots developed) ([3]; # of B 3): 5
- SS day (day during holding at 17.8° C. on which sugar spots developed) ([3]; # of B 5): 6
- SS day (day during holding at 17.8° C. on which sugar spots developed) ([3]; # of B 7): 8
- SS day (day during holding at 17.8° C. on which sugar spots developed) ([3]; # of B 9): 8
- SS day (day during holding at 17.8° C. on which sugar spots developed) ([3]; # of B 12): 8
- day on which sugar spots developed ([3]; T-bags, 1,000 ppb of 1-MCP): 3
